*1 amine or outer side, *2 acyl side, *3 side chain or, on linkers, in order; H or OH if unused. Where a SMILES comes first, the peptide text is derived from it. Bridges are numbered along the chain shown (N, C = ends). Roman numbers before positions name the chains, in order. [ ]: non-standard residue; d: D form. The star is where a group is joined. ξ: configuration not given here. TATA = O=C(CC[*:1])N1CN(C(=O)CC[*:2])CN(C(=O)CC[*:3])C1; Dolaproine = CO[C@@H]([C@@H]1CCCN1)[C@@H](C)C(=O)O; X1 = CC[C@H](C)C(C(CC(=O)[*:2])OC)N(C)[*:1]; 1Nal = N[C@@H](Cc1cccc2ccccc12)C(=O)O; X3 = O=C(CCCC(=O)[*:2])NCCC(=O)[*:1]; PABC = O=C(OCc1ccc(N[*:1])cc1)[*:2]; Hyp = O=C(O)[C@@H]1C[C@@H](O)CN1; hArg = N=C(N)NCCCC[C@H](N)C(=O)O; Cit = NC(=O)NCCC[C@H](N)C(=O)O; X2 = CC(N*)[C@@H](O)c1ccccc1; ξNMeV = CNC(C(=O)O)C(C)C; ξV = CC(C)C(N)C(=O)O; Sar = CNCC(=O)O
Legend:
MDA-MB-468 xenograft = experiment: Example 4: in vivo efficacy in MDA-MB-468 xenograft (breast cancer model) in Balb/c nude mice; design: species or system Mus Musculus
HT-1376 xenograft = experiment: Example 2: in vivo efficacy in HT-1376 xenograft (bladder cancer model) in CB17-SCID mice
Protocol: The major endpoint was to see if the tumor growth could be delayed or mice could be cured. Tumor volume was measured three times weekly in two dimensions using a caliper, and the volume was expressed in mm^3 using the formula: V=0.5 a×b^2 where a and b are the long and short diameters of the tumor, respectively. The tumor size was then used for calculations of T/C value. The T/C value (in percent) is an indication of antitumor effectiveness; T and C are the mean volumes of the treated and control groups, respectively, on a given day. TGI was calculated for each group using the formula: TGI (%)=[1−(Ti−T0)/(Vi−V0)]×100; Ti is the average tumor volume of a treatment group on a given day, T0 is the average tumor volume of the treatment group on the day of treatment start, Vi is the average tumor volume of the vehicle control group on the same day with Ti, and V0 is the average tumor volume of the vehicle group on the day of treatment start.
A one-way ANOVA was performed to compare tumor volume among groups, and when a significant F-statistics (a ratio of treatment variance to the error variance) was obtained, comparisons between groups were carried out with Games-Howell test. […] P<0.05 was considered to be statistically significant.
• Species: Mus Musculus • Strain: CB17-SCID • Age: 6-8 weeks • Sex: female • Body weight: 18-22 g • Number of animals: 21-41 mice plus spare • Animal supplier: Shanghai LC Laboratory Animal Co., LTD.
The HT-1376 tumor cells were maintained in vitro as a monolayer culture in EMEM medium supplemented with 10% heat inactivated fetal bovine serum at 37° C. in an atmosphere of 5% CO2 in air. The tumor cells were routinely subcultured twice weekly by trypsin-EDTA treatment.
Each mouse was inoculated subcutaneously at the right flank with HT-1376 tumor cells (5×10^6) in 0.2 ml of PBS with matrigel (1:1) for tumor development. Animals were randomized when the average tumor volume reached 153-164 mm^3.
Tumor growth inhibition rate for Test articles in the HT-1376 xenograft model was calculated based on tumor volume measurements at day 21 after the start of treatment.

[1] = 3 mg/kg biw, day 21, groups 8-17
[2] = 3 mg/kg qw, day 21, groups 8-17
[3] = 5 mg/kg qw, day 21, groups 8-17

`CC[C@H](C)C(C(CC(=O)N1CCC[C@H]1[C@H](OC)[C@@H](C)C(=O)NC(C)[C@@H](O)c1ccccc1)OC)N(C)C(=O)[C@@H](NC(=O)C(C(C)C)N(C)C(=O)OCc1ccc(NC(=O)[C@H](CCCNC(N)=O)NC(=O)C(NC(=O)CCCC(=O)NCCC(=O)N(C)CC(=O)N(C)CC(=O)N(C)CC(=O)N(C)CC(=O)N(C)CC(=O)N(C)CC(=O)N(C)CC(=O)N(C)CC(=O)N(C)CC(=O)N(C)CC(=O)N[C@H]2CSCCC(=O)N3CN4CN(C3)C(=O)CCSC[C@H](NC(=O)[C@@H](CC(=O)O)NC(=O)[C@H](Cc3cccc5ccccc35)NC(=O)[C@@H]3CCCN3C2=O)C(=O)N[C@@H](CCSC)C(=O)N[C@@H](CCCCNC(=N)N)C(=O)N[C@@H](CC(=O)O)C(=O)N[C@@H](Cc2c[nH]c3ccccc23)C(=O)N[C@@H](CO)C(=O)N[C@@H]([C@@H](C)O)C(=O)N2CCC[C@H]2C(=O)N2C[C@H](O)C[C@H]2C(=O)N[C@@H](Cc2c[nH]c3ccccc23)C(=O)N[C@H](C(N)=O)CSCCC4=O)C(C)C)cc1)C(C)C` (stereo partly drawn) [BCY8245, MMAE-PABC-Cit-Val-Glutaryl-BCY8234] (I: [Sar][Sar][Sar][Sar][Sar][Sar][Sar][Sar][Sar][Sar]CP[1Nal][dD]CM[hArg]DWSTP[Hyp]WC-NH2 / II: [ξV][Cit][PABC][ξNMeV]V[X1][Dolaproine]-X2; linker I:11-I:15-I:25 via TATA; linker I:N-II:N via X3) showed a Tumor volume (MDA-MB-468 xenograft; 5 mpk, qw, dosing suspended from day 21, day 25) of 48 ± 5 mm^3, a Tumor volume (MDA-MB-468 xenograft; 5 mpk, qw, dosing suspended from day 21, day 28) of 37 ± 7 mm^3 and a Tumor volume (MDA-MB-468 xenograft; 5 mpk, qw, dosing suspended from day 21, day 32) of 28 ± 6 mm^3. It also gave a Tumor volume (MDA-MB-468 xenograft; 5 mpk, qw, dosing suspended from day 21, day 35) of 24 ± 4 mm^3, a Tumor volume (MDA-MB-468 xenograft; 5 mpk, qw, dosing suspended from day 21, day 39) of 28 ± 6 mm^3 and a Tumor volume (MDA-MB-468 xenograft; 5 mpk, qw, dosing suspended from day 21, day 42) of 26 ± 6 mm^3. It also gave a Tumor volume (MDA-MB-468 xenograft; 5 mpk, qw, iv, day 0 after start of treatment) of 199 ± 28 mm^3, a Tumor volume (MDA-MB-468 xenograft; 5 mpk, qw, iv, day 2) of 193 ± 11 mm^3 and a Tumor volume (MDA-MB-468 xenograft; 5 mpk, qw, iv, day 4) of 135 ± 4 mm^3. It also gave a Tumor volume (MDA-MB-468 xenograft; 5 mpk, qw, iv, day 7) of 98 ± 5 mm^3, a Tumor volume (MDA-MB-468 xenograft; 5 mpk, qw, iv, day 9) of 58 ± 5 mm^3 and a Tumor volume (MDA-MB-468 xenograft; 5 mpk, qw, iv, day 11) of 49 ± 5 mm^3. It also gave a Tumor volume (MDA-MB-468 xenograft; 5 mpk, qw, iv, day 14) of 47 ± 2 mm^3, a Tumor volume (MDA-MB-468 xenograft; 5 mpk, qw, iv, day 16) of 37 ± 4 mm^3 and a Tumor volume (MDA-MB-468 xenograft; 5 mpk, qw, iv, day 18) of 35 ± 3 mm^3. It also gave a Tumor volume (MDA-MB-468 xenograft; 5 mpk, qw, iv, day 21) of 29 ± 3 mm^3, a T/C (MDA-MB-468 xenograft; 5 mpk, qw, day 21) of 6.6% and a TGI (MDA-MB-468 xenograft; 5 mpk, qw, day 21) of 168.4%. For the same compound, the “Tumor volume” value (MDA-MB-468 xenograft; 5 mpk, qw, day 21, Mean ± SEM (Table 22)) was 29 ± 3 mm^3, the “anti-tumour activity (in words)” value (MDA-MB-468 xenograft; mouse, in vivo) was “good anti-tumour activity” and the “antitumor activity (in words)” value (HT-1376 xenograft; 1 mg/kg) was “slight antitumor activity”. The TGI (HT-1376 xenograft; [1]) was 72.3%, the “Tumor volume (TV)” value (HT-1376 xenograft; [1]) was 407 mm^3 and the TGI (HT-1376 xenograft; [2]) was 50.9%. The “Tumor volume (TV)” value (HT-1376 xenograft; [2]) was 603 mm^3, the TGI (HT-1376 xenograft; [3]) was 66.0% and the “Tumor volume (TV)” value (HT-1376 xenograft; [3]) was 465 mm^3. The Tumor volume (HT-1376 xenograft; 1/3 mpk, qw, iv (1 mg/kg first week, 3 mg/kg following 2 weeks), day 0 after start of treatment (Table 14)) was 164 ± 16 mm^3, the Tumor volume (HT-1376 xenograft; 1/3 mpk, qw, iv (1 mg/kg first week, 3 mg/kg following 2 weeks), day 2 (Table 14)) was 184 ± 12 mm^3 and the Tumor volume (HT-1376 xenograft; 1/3 mpk, qw, iv (1 mg/kg first week, 3 mg/kg following 2 weeks), day 4 (Table 14)) was 206 ± 14 mm^3. The Tumor volume (HT-1376 xenograft; 1/3 mpk, qw, iv (1 mg/kg first week, 3 mg/kg following 2 weeks), day 7 (Table 14)) was 265 ± 21 mm^3, the Tumor volume (HT-1376 xenograft; 1/3 mpk, qw, iv (1 mg/kg first week, 3 mg/kg following 2 weeks), day 9 (Table 14)) was 291 ± 10 mm^3 and the Tumor volume (HT-1376 xenograft; 1/3 mpk, qw, iv (1 mg/kg first week, 3 mg/kg following 2 weeks), day 11 (Table 14)) was 281 ± 28 mm^3. For the same compound, the Tumor volume (HT-1376 xenograft; 1/3 mpk, qw, iv (1 mg/kg first week, 3 mg/kg following 2 weeks), day 14 (Table 14)) was 335 ± 16 mm^3, the Tumor volume (HT-1376 xenograft; 1/3 mpk, qw, iv (1 mg/kg first week, 3 mg/kg following 2 weeks), day 16 (Table 14)) was 354 ± 11 mm^3 and the Tumor volume (HT-1376 xenograft; 1/3 mpk, qw, iv (1 mg/kg first week, 3 mg/kg following 2 weeks), day 18 (Table 14)) was 309 ± 19 mm^3. The Tumor volume (HT-1376 xenograft; 1/3 mpk, qw, iv (1 mg/kg first week, 3 mg/kg following 2 weeks), day 21 (Table 14)) was 347 ± 14 mm^3, the T/C (HT-1376 xenograft; 3 mpk, biw (Table 17)) was 38.1% and the TGI (HT-1376 xenograft; 3 mpk, biw (Table 17)) was 72.3%. For the same compound, the Tumor volume (HT-1376 xenograft; 3 mpk, biw, iv, day 0 after start of treatment (Table 15)) was 154 ± 30 mm^3, the Tumor volume (HT-1376 xenograft; 3 mpk, biw, iv, day 2 (Table 15)) was 248 ± 58 mm^3 and the Tumor volume (HT-1376 xenograft; 3 mpk, biw, iv, day 5 (Table 15)) was 203 ± 15 mm^3. The Tumor volume (HT-1376 xenograft; 3 mpk, biw, iv, day 7 (Table 15)) was 273 ± 45 mm^3, the Tumor volume (HT-1376 xenograft; 3 mpk, biw, iv, day 9 (Table 15)) was 356 ± 50 mm^3 and the Tumor volume (HT-1376 xenograft; 3 mpk, biw, iv, day 12 (Table 15)) was 391 ± 53 mm^3. For the same compound, the Tumor volume (HT-1376 xenograft; 3 mpk, biw, iv, day 14 (Table 15)) was 407 ± 53 mm^3, the “Tumor volume” value (HT-1376 xenograft; 3 mpk, biw, day 14 values of Table 15, Mean ± SEM (Table 17)) was 407 ± 53 mm^3 and the T/C (HT-1376 xenograft; 3 mpk, qw (Table 17)) was 56.4%. For the same compound, the TGI (HT-1376 xenograft; 3 mpk, qw (Table 17)) was 50.9%, the Tumor volume (HT-1376 xenograft; 3 mpk, qw, iv, day 0 after start of treatment (Table 15, groups 8-17)) was 153 ± 26 mm^3 and the Tumor volume (HT-1376 xenograft; 3 mpk, qw, iv, day 2 (Table 15)) was 254 ± 53 mm^3. For the same compound, the Tumor volume (HT-1376 xenograft; 3 mpk, qw, iv, day 5 (Table 15)) was 298 ± 69 mm^3, the Tumor volume (HT-1376 xenograft; 3 mpk, qw, iv, day 7 (Table 15)) was 398 ± 61 mm^3 and the Tumor volume (HT-1376 xenograft; 3 mpk, qw, iv, day 9 (Table 15)) was 468 ± 73 mm^3. For the same compound, the Tumor volume (HT-1376 xenograft; 3 mpk, qw, iv, day 12 (Table 15)) was 502 ± 67 mm^3, the Tumor volume (HT-1376 xenograft; 3 mpk, qw, iv, day 14 (Table 15)) was 603 ± 76 mm^3 and the “Tumor volume” value (HT-1376 xenograft; 3 mpk, qw, day 14 values of Table 15, Mean ± SEM (Table 17)) was 603 ± 76 mm^3. The T/C (HT-1376 xenograft; 3 mpk, qw, day 21 (Table 16)) was 39.2%, the TGI (HT-1376 xenograft; 3 mpk, qw, day 21 (Table 16)) was 74.5% and the “Tumor volume” value (HT-1376 xenograft; 3 mpk, qw, day 21, Mean ± SEM (Table 16)) was 347 ± 14 mm^3. For the same compound, the T/C (HT-1376 xenograft; 5 mpk, qw (Table 17)) was 43.5%, the TGI (HT-1376 xenograft; 5 mpk, qw (Table 17)) was 66.0% and the Tumor volume (HT-1376 xenograft; 5 mpk, qw, iv, day 0 after start of treatment (Table 15)) was 153 ± 15 mm^3. The Tumor volume (HT-1376 xenograft; 5 mpk, qw, iv, day 2 (Table 15)) was 237 ± 41 mm^3, the Tumor volume (HT-1376 xenograft; 5 mpk, qw, iv, day 5 (Table 15)) was 228 ± 36 mm^3 and the Tumor volume (HT-1376 xenograft; 5 mpk, qw, iv, day 7 (Table 15)) was 317 ± 31 mm^3. It also gave a Tumor volume (HT-1376 xenograft; 5 mpk, qw, iv, day 9 (Table 15)) of 394 ± 20 mm^3, a Tumor volume (HT-1376 xenograft; 5 mpk, qw, iv, day 12 (Table 15)) of 438 ± 31 mm^3 and a Tumor volume (HT-1376 xenograft; 5 mpk, qw, iv, day 14 (Table 15)) of 465 ± 33 mm^3. The “Tumor volume” value (HT-1376 xenograft; 5 mpk, qw, day 14 values of Table 15, Mean ± SEM (Table 17)) was 465 ± 33 mm^3, the “efficacy (in words)” value (HT-1376 xenograft; after increasing dosage to 3 mg/kg from day 7) was “better efficacy” and the “anti-tumour activity (in words)” value (HT-1376 xenograft; mouse, in vivo) was “good anti-tumour activity”.

Reference: US12459974B2, “Bicyclic peptide ligands specific for Nectin-4” (priority 2018, dated 2025)
